Columns and labels:
Assay in all cases: Greenhouse herbicidal activity, post-emergence treatment
Details in all cases: 0.5 or 0.25 kg/ha of a.s.
Chenopodium album = type: in vivo, Chenopodium album (lambsquarters, goosefoot)
Text: (§1) The culture containers used were plastic pots containing loamy sand with approximately 3.0% of humus as the substrate. The seeds of the test plants were sown separately for each species.
(§2) For the post-emergence treatment, the test plants were first grown to a height of 3 to 15 cm, depending on the plant habit, and only then treated with the active compounds which had been emulsified or suspended in water. The test plants were for this purpose either sown directly and grown in the same containers, or they were first grown separately as seedlings and transplanted into the test containers a few days prior to treatment. The application rate for the post-emergence treatment was 0.5 or 0.25 kg/ha of a.s.
(§3) Depending on the species, the plants were kept at 10-25° C. or 20-35° C. . The test period extended over 2 to 4 weeks. During this time, the plants were tended, and their response to the individual treatments was evaluated.
(§4) The evaluation was carried out using a scale from 0 to 100. 100 means no emergence of the plants, or complete destruction of at least the aerial parts, and 0 means no damage, or normal course of growth.
(§5) The plants used in the greenhouse trials were from the following species:
(§6) Herbicidal activity when employed by the post-emergence method (greenhouse) [drawing 20]

Setaria viridis = type: in vivo, Setaria viridis (green foxtail)
Text: as §1, §2, §3, §4, §5, §6

Sinapis alba = type: in vivo, Sinapis alba (white mustard)
Text: as §1, §2, §3, §4, §5, §6

Solanum nigrum = type: in vivo, Solanum nigrum (black nightshade)
Text: as §1, §2, §3, §4, §5, §6

Measured: control of the weed (herbicidal activity)

CC1(C)C(=O)C(C(=O)c2ccc(Cl)c(CC3=NOCC3)c2Cl)=C(O)C(C)(C)C1=O [Compound 37.2, 2,4-Dichloro-3-((4,5-dihydro-3-isoxazolylmethyl)phenyl)(3,3,6,6-tetramethylcyclohexane-1,3,5-trione)methanone]
very efficient control: all assays above
